Test results published in patent US5807875A, “Amino acid derivatives, pharmaceutical compositions containing these compounds and processes for preparing them” (Dr. Karl Thomae GmbH, priority 1993, dated 1998).

Key:
[1] = biological target: T1, NPY-Y1 receptor (Homo sapiens, UniProt P25929); assay: Studies of binding with SK-N-MC cells (displacement of [^125 I]-Bolton-Hunter-NPY); conditions: SK-N-MC cells expressing the human Y1-receptor, 3 hours at ambient temperature
T1 construct: SK-N-MC cells (expressing the human Y1 -receptor); endogenous in cells; host or cells: SK-N-MC (human cell line), whole cells in suspension
T1 sequence (P25929 1-384): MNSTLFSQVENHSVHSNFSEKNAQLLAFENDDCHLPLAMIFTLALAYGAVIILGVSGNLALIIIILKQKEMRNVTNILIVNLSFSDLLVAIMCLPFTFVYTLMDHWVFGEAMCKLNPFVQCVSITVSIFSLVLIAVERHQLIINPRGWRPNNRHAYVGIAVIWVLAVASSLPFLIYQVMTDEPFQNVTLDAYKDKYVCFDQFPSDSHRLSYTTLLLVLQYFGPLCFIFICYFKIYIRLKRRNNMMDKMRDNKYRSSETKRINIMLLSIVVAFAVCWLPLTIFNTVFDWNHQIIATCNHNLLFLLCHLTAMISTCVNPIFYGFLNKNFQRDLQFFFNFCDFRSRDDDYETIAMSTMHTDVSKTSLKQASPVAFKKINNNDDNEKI
Protocol: A. Studies of binding with SK-N-MC cells (expressing the human Y1 -receptor)
Incubation is ended by centrifuging (10 minutes at 3000×gand 4° C.). After washing once with PBS, the radioactivity of the pellet is measured in a gamma counter. […] The proportion of non-specific binding is defined as that radioactivity which is bound in the presence of 1 μM NPY. The IC50 values of the unlabelled test substances are determined graphically.

[2] = tested on: NPY activity; assay: NPY-antagonism in vitro (isolated perfused rat kidney); conditions: inhibition of NPY (1 μM bolus) induced pressure increase, 5 minute infusion of compound
Protocol: B. NPY-antagonism in vitro
Male rats (CHbb: THOM, 300 to 350 g) are given heparin (100 IU, i.v.) and the animals are then killed by a blow to the back of the neck. The abdomen is opened along the centre of the body and the left kidney is removed after the insertion of catheters in the renal artery, renal vein and ureter. The isolated kidney is immediately perfused with a modified Krebs-Ringer solution having the following composition (4 ml/minute):
A mixture of 95% O2 /5% CO2 is passed through the solution which is kept at a temperature of 37° C. The perfusion pressure is measured continuously using a pressure gauge. After a 60 minute stabilisation period the perfusion rate is adjusted so as to obtain a perfusion pressure of approximately 100 mm Hg. After a further 30 minutes the experiment is started and NPY (1 μM) is administered as a bolus (0.1 ml) at 15 minute intervals until the pressure increase observed reaches a constant value. The compounds to be tested are given in the form of a continuous infusion over a period of 5 minutes and then NPY is injected. After a 30 minute wash-out period the next highest concentration of test substance is investigated. 3 to 5 different concentrations of the particular compound are tested on each occasion. Concentration/activity curves can be obtained by plotting the percentage inhibition of the NPY activity against the logarithm of the concentration (mol/l) of the compound.

[3] = tested on: NPY-induced blood pressure effects; assay: In vivo NPY-antagonism (pithed rats); conditions: Rattus norvegicus, iv, 1 min, inhibition of increase in diastolic blood pressure by NPY (10 μg/kg, i.v.), NPY given one minute after test substance, read-out: pID50 (the source's name) (converted)
Protocol: C. In vivo NPY-antagonism
Male rats of normal blood pressure (Chbb:THOM, 300 to 350 g) are anaesthetised with sodium hexobarbital (150 mg/kg, i.p.). After intubation of the trachea the animals are pithed by introducing a blunt needle through the eye into the spinal bone marrow channel. The animals are ventilated with oxygen-rich ambient air using a respiratory pump (20 strokes/minute). A cannula is inserted in the left carotid artery and the arterial blood pressure is measured using a pressure gauge (Braun Melsungen Combitrans) connected to a recording device. For injection purposes a catheter is placed in the left jugular vein through which heparin is administered (200 IU/kg, i.v.). After the blood pressure has been stabilised, the animals are given 2 bolus injections of NPY (10 μg/kg, i.v.) at intervals of 15 minutes. The average increase in diastolic blood pressure is taken as the reference value (=100%). The test substances are injected in increasing doses (4 to 6 doses) at intervals of 15 minutes. One minute after administration of the test substance, NPY is administered.
The antagonistic effect of the test substances is determined by plotting the percentage inhibition of the NPY-induced blood pressure effects against the logarithm of the concentration of active substance.

[4] = Solubility

In the case of `N=C(N)NCCC[C@@H](NC(=O)C(c1ccc(Br)cc1)c1ccc(Br)cc1)C(=O)NCc1ccc(O)cc1` [A], the IC50 [1] is reported as 1.8 nM.

Compound `N=C(N)NCCC[C@@H](NC(=O)C(c1ccccc1)c1ccccc1)C(=O)NCc1ccc(CCO)cc1` [B] has an IC50 [1] of 7.7 nM.

For `N=C(N)NCCC[C@@H](NC(=O)C(c1ccccc1)c1ccccc1)C(=O)NCc1ccc(O)cc1` [C], the pIC50 [2] was 7.15 mol/l and the ED50 [3] was 0.186 µmol/kg.

Compound `N=C(N)NCCC[C@@H](NC(=O)C(c1ccccc1)c1ccccc1)C(=O)NCc1ccc(CO)cc1` [D] has an IC50 [1] of 13.5 nM.

Work on `Cc1cc(CNC(=O)C(CCCNC(=N)N)NC(=O)C(c2ccccc2)c2ccccc2)ccc1O` (stereo not drawn) [E] yielded an IC50 [1] of 10 nM.

With `N=C(N)NCCC[C@@H](NC(=O)C(c1ccccc1)c1ccccc1)C(=O)NCc1ccc(CN)cc1.O=C(O)C(F)(F)F.O=C(O)C(F)(F)F` [Example 128, (R)-N-[[4-(Aminomethyl)phenyl]methyl]-N^2-(diphenylacetyl)-argininamide-bis-(trifluoroacetate)] the solubility in dichloromethane ([4]; dichloromethane) was “readily soluble”, the solubility in dimethylsulphoxide ([4]; dimethylsulphoxide) was “readily soluble” and the solubility in methanol ([4]; methanol) was “readily soluble”. For the same compound, the solubility in water ([4]; water) was “readily soluble”.

`N=C(N)c1cccc(CC(NC(=O)C(c2ccccc2)c2ccccc2)C(=O)NCc2ccc(O)cc2)c1` (stereo not drawn) [F] gave an IC50 [1] of 11.3 nM, a pIC50 [2] of 7.70 mol/l and an ED50 [3] of 0.151 µmol/kg.

Compound `CN(Cc1ccc(O)cc1)C(=O)[C@@H](CCCNC(=N)N)NC(=O)C(c1ccccc1)c1ccccc1` [G] has an IC50 [1] of 25.3 nM.

Compound `O=C(NCc1ccc(O)cc1)C(CCCNc1ncc[nH]1)NC(=O)C(c1ccccc1)c1ccccc1` (stereo not drawn) [H] has an IC50 [1] of 18 nM.

Work on `Cc1cc(CNC(=O)C(CCCNC(=N)N)NC(=O)C(c2ccccc2)c2ccccc2)cc(C)c1O` (stereo not drawn) [I] yielded an IC50 [1] of 26 nM.

Compound `COc1ccc(CNC(=O)C(CCCNC(=N)N)NC(=O)C(c2ccccc2)c2ccccc2)cc1` (stereo not drawn) [K] has an IC50 [1] of 32 nM, a pIC50 [2] of 6.70 mol/l and an ED50 [3] of 0.331 µmol/kg.

With `CC1(C)NC(=O)N(Cc2ccc(CNC(=O)[C@@H](CCCNC(=N)N)NC(=O)C(c3ccccc3)c3ccccc3)cc2)C1=O` [L] the IC50 [1] was 26.8 nM.

`O=C(NC(CCCNc1ncc[nH]1)C(=O)NCc1ccc(O)cc1)c1ccc2ccccc2c1` (stereo not drawn) [M] gave an IC50 [1] of 80.5 nM.

In the case of `O=C(Nc1ccc2ccccc2c1)NC(CCCNc1ncc[nH]1)C(=O)NCc1ccc(O)cc1` (stereo not drawn) [N], the IC50 [1] is reported as 85.5 nM.

Work on `O=C(NCc1ccc(O)cc1)C(Cc1ccc(C2=NCCN2)cc1)NC(=O)C(c1ccccc1)c1ccccc1` (stereo not drawn) [O] yielded an IC50 [1] of 207 nM.

In the case of `N=C(N)CCCCC(NC(=O)C(c1ccccc1)c1ccccc1)C(=O)NCc1ccc(O)cc1` (stereo not drawn) [P], the IC50 [1] is reported as 39 nM.
